Measurements from the NIST ThermoML archive (doi:10.1021/je049579x).
Where “and” joins values, the source holds several entries; their conditions need not be identical. Equal entries are not always repeated.

Details: Crystal, Torsion effusion method

[Br-].[Br-].[Br-].[Lu+3] [lutetium tribromide]
Details | vapor or sublimation pressure
903 K | 6.3e-05 kPa
908 K | 7.9e-05 kPa
909 K | 9.3e-05 kPa
910 K | 6.3e-05 kPa and 9.3e-05 kPa
914 K | 9.3e-05 kPa
917 K | 9.3e-05 kPa
918 K | 0.000141 kPa and 0.000126 kPa
919 K | 0.000126 kPa
920 K | 0.00011 kPa
921 K | 9.3e-05 kPa and 0.00011 kPa
924 K | 0.000141 kPa
926 K | 0.000126 kPa and 0.000191 kPa
927 K | 0.000191 kPa
929 K | 0.000204 kPa
930 K | 0.000158 kPa and 0.000126 kPa
931 K | 0.000158 kPa
935 K | 0.000191 kPa
936 K | 0.000234 kPa
937 K | 0.000282 kPa
938 K | 0.000251 kPa and 0.000219 kPa and 0.000282 kPa
939 K | 0.000282 kPa
940 K | 0.000191 kPa
946 K | 0.000316 kPa
947 K | 0.00038 kPa
948 K | 0.00038 kPa [middle of 4 runs]
950 K | 0.000407 kPa and 0.000282 kPa
956 K | 0.000427 kPa and 0.000437 kPa and 0.000501 kPa
957 K | 0.000562 kPa
958 K | 0.00049 kPa and 0.000468 kPa
960 K | 0.000603 kPa and 0.000427 kPa
965 K | 0.000676 kPa
966 K | 0.000617 kPa and 0.000794 kPa and 0.000724 kPa
967 K | 0.000661 kPa and 0.000794 kPa
968 K | 0.000661 kPa
969 K | 0.000794 kPa and 0.000617 kPa
973 K | 0.000912 kPa
975 K | 0.000813 kPa
976 K | 0.001096 kPa and 0.001047 kPa
977 K | 0.001072 kPa
978 K | 0.000912 kPa and 0.000933 kPa
979 K | 0.001096 kPa and 0.000912 kPa
981 K | 0.001175 kPa
984 K | 0.001445 kPa
986 K | 0.001202 kPa and 0.001413 kPa and 0.001445 kPa
987 K | 0.001318 kPa
988 K | 0.001288 kPa
989 K | 0.001514 kPa and 0.00123 kPa and 0.001585 kPa
995 K | 0.00195 kPa and 0.001778 kPa
996 K | 0.001585 kPa and 0.00195 kPa
997 K | 0.00195 kPa and 0.001778 kPa
998 K | 0.001778 kPa and 0.001622 kPa
999 K | 0.002089 kPa
1004 K | 0.00257 kPa and 0.002399 kPa
1006 K | 0.002512 kPa and 0.002089 kPa and 0.00257 kPa
1007 K | 0.002188 kPa and 0.002399 kPa
1008 K | 0.002399 kPa
1009 K | 0.002818 kPa
1013 K | 0.003311 kPa and 0.00309 kPa
1016 K | 0.003162 kPa
1017 K | 0.002951 kPa and 0.003388 kPa
1018 K | 0.003236 kPa and 0.00302 kPa and 0.003548 kPa
1023 K | 0.004074 kPa
1026 K | 0.004074 kPa
1027 K | 0.003981 kPa and 0.003802 kPa and 0.005012 kPa
1028 K | 0.00389 kPa
1038 K | 0.007244 kPa

[Cl][Lu]([Cl])[Cl] [lutetium trichloride]
Details | vapor or sublimation pressure
942 K | 6.3e-05 kPa
945 K | 7.9e-05 kPa
946 K | 7.9e-05 kPa
953 K | 7.9e-05 kPa
955 K | 0.000126 kPa
958 K | 0.00011 kPa
959 K | 0.000126 kPa
963 K | 0.000141 kPa
968 K | 0.000158 kPa
969 K | 0.000191 kPa
970 K | 0.000158 kPa
976 K | 0.000219 kPa
978 K | 0.000251 kPa
981 K | 0.000251 kPa
982 K | 0.000316 kPa
984 K | 0.000347 kPa
991 K | 0.00038 kPa and 0.000407 kPa
992 K | 0.00038 kPa
998 K | 0.000468 kPa and 0.00055 kPa
1001 K | 0.000603 kPa
1002 K | 0.000562 kPa
1004 K | 0.000617 kPa and 0.000575 kPa
1005 K | 0.000631 kPa
1012 K | 0.000794 kPa
1013 K | 0.000912 kPa
1016 K | 0.000933 kPa
1017 K | 0.001 kPa and 0.000912 kPa
1018 K | 0.000977 kPa
1024 K | 0.00123 kPa
1029 K | 0.001445 kPa
1030 K | 0.001445 kPa
1031 K | 0.001622 kPa
1032 K | 0.001622 kPa
1033 K | 0.00166 kPa and 0.001778 kPa
1042 K | 0.002239 kPa and 0.002188 kPa and 0.002138 kPa
1046 K | 0.00263 kPa
1047 K | 0.002692 kPa
1048 K | 0.002818 kPa
1050 K | 0.002951 kPa
1051 K | 0.002951 kPa
1053 K | 0.003162 kPa
1058 K | 0.003631 kPa
1059 K | 0.003548 kPa
1060 K | 0.003715 kPa and 0.003981 kPa
1062 K | 0.00389 kPa
1066 K | 0.004467 kPa
1071 K | 0.00537 kPa and 0.004898 kPa
1075 K | 0.005495 kPa and 0.00537 kPa

[I][Lu]([I])[I] [lutetium triiodide]
Details | vapor or sublimation pressure
862 K | 3e-05 kPa
875 K | 6e-05 kPa
883 K | 7.6e-05 kPa
888 K | 8.9e-05 kPa
892 K | 7.6e-05 kPa
893 K | 0.000105 kPa
894 K | 0.00012 kPa
895 K | 0.00012 kPa
896 K | 0.000151 kPa
897 K | 0.00012 kPa
898 K | 0.000151 kPa
899 K | 0.000151 kPa
900 K | 0.000105 kPa
901 K | 0.00012 kPa
904 K | 0.000151 kPa and 0.000182 kPa
905 K | 0.000182 kPa
906 K | 0.000224 kPa and 0.000166 kPa
909 K | 0.000209 kPa and 0.000151 kPa and 0.000166 kPa
911 K | 0.00024 kPa and 0.000195 kPa
912 K | 0.000209 kPa
913 K | 0.00024 kPa
915 K | 0.000269 kPa
916 K | 0.000302 kPa and 0.00024 kPa
917 K | 0.000347 kPa
918 K | 0.00024 kPa
919 K | 0.000209 kPa
920 K | 0.000269 kPa and 0.000288 kPa
921 K | 0.000331 kPa
923 K | 0.000372 kPa
924 K | 0.000363 kPa
926 K | 0.000269 kPa and 0.000447 kPa
927 K | 0.000347 kPa
928 K | 0.000513 kPa and 0.000363 kPa and 0.000389 kPa
929 K | 0.000389 kPa
931 K | 0.000513 kPa
932 K | 0.000501 kPa
933 K | 0.000575 kPa
935 K | 0.000537 kPa
936 K | 0.000513 kPa
937 K | 0.000513 kPa
938 K | 0.000724 kPa [middle of 4 runs]
940 K | 0.000692 kPa
942 K | 0.000759 kPa
943 K | 0.000759 kPa and 0.000692 kPa
945 K | 0.000692 kPa and 0.000575 kPa and 0.000724 kPa
948 K | 0.001047 kPa and 0.000776 kPa
949 K | 0.000933 kPa
950 K | 0.001023 kPa
951 K | 0.001072 kPa and 0.000891 kPa
952 K | 0.001122 kPa
953 K | 0.000933 kPa
954 K | 0.001 kPa
955 K | 0.000832 kPa
958 K | 0.001413 kPa and 0.001445 kPa and 0.001148 kPa
959 K | 0.001445 kPa and 0.00123 kPa
960 K | 0.001514 kPa
961 K | 0.001479 kPa
962 K | 0.001349 kPa
963 K | 0.001413 kPa
964 K | 0.00123 kPa
967 K | 0.00195 kPa and 0.001622 kPa
968 K | 0.002239 kPa and 0.001995 kPa
969 K | 0.001622 kPa
970 K | 0.002138 kPa
972 K | 0.001905 kPa and 0.002239 kPa and 0.00182 kPa
974 K | 0.001738 kPa
975 K | 0.002138 kPa
976 K | 0.002951 kPa and 0.00257 kPa
977 K | 0.002884 kPa and 0.002138 kPa
978 K | 0.002455 kPa
979 K | 0.002291 kPa and 0.002951 kPa
983 K | 0.002951 kPa and 0.002399 kPa
985 K | 0.003631 kPa and 0.003162 kPa and 0.003236 kPa
986 K | 0.003981 kPa and 0.003715 kPa
987 K | 0.00302 kPa
991 K | 0.004266 kPa
993 K | 0.004677 kPa and 0.00389 kPa
994 K | 0.004074 kPa and 0.003388 kPa and 0.004169 kPa
995 K | 0.005012 kPa and 0.003631 kPa
996 K | 0.005012 kPa
1004 K | 0.00631 kPa and 0.005623 kPa
